Reference: paper PMC6461439, “Enzyme activity and selectivity filter stability of ancient TRPM2 channels were simultaneously lost in early vertebrates” (eLife, 2019)

Tests used:
nvTRPM2 [1] = target: T1, nvTRPM2 (Nematostella vectensis, UniProt A7T1N0, E1443I/F1444L)
T1 construct: gene TRPM2

nvTRPM2 [2] = target: T2, nvTRPM2 (Nematostella vectensis, UniProt A7T1N0, E1446K/E1447K)
T2 construct: gene TRPM2
T2 sequence (A7T1N0 whole entry E1446K/E1447K): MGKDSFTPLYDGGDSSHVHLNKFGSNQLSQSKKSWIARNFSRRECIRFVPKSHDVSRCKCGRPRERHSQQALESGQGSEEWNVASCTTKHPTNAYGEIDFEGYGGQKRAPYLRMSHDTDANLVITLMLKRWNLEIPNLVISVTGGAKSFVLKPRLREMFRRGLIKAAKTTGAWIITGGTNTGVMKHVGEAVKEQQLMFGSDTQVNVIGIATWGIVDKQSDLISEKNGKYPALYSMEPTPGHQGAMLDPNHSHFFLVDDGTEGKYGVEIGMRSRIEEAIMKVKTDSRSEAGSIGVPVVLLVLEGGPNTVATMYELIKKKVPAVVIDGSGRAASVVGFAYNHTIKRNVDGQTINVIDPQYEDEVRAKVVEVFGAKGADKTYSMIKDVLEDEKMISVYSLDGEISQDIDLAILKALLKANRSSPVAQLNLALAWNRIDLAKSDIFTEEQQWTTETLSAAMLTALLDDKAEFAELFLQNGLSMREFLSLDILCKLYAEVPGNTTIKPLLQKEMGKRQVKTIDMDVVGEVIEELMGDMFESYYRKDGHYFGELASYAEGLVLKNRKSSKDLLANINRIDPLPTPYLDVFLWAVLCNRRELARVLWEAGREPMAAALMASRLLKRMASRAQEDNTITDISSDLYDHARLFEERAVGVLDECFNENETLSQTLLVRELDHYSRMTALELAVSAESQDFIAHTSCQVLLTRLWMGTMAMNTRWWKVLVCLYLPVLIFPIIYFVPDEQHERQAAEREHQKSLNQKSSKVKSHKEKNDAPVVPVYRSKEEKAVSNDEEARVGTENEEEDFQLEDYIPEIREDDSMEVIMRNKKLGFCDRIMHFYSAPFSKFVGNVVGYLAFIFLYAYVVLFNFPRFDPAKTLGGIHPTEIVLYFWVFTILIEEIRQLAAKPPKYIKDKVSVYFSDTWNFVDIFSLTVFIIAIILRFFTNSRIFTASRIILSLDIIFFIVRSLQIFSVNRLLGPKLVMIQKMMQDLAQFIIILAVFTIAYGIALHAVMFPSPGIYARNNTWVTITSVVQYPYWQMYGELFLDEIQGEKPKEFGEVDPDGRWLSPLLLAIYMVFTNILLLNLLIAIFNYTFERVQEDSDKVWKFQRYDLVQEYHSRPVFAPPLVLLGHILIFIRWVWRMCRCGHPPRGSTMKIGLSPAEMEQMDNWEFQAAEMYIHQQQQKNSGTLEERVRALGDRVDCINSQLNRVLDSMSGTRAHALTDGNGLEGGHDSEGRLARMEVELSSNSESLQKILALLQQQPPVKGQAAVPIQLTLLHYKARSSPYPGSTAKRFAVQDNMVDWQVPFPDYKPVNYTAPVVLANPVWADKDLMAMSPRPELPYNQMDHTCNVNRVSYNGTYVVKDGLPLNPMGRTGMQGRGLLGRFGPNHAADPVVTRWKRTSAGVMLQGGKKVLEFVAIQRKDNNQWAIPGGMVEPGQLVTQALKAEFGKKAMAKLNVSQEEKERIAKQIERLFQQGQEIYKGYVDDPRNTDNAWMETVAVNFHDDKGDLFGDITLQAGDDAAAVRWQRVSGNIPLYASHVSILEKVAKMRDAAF

T1 sequence (A7T1N0 whole entry E1443I/F1444L): as the sequence (A7T1N0 whole entry E1446K/E1447K) above, with E1443I, F1444L, K1446E, K1447E counted along it

## Nc1ncnc2c1ncn2[C@@H]1O[C@H](COP(=O)(O)OP(=O)(O)OC[C@H]2OC(O)[C@H](O)[C@@H]2O)[C@@H](O)[C@H]1O (some centres unmarked) [ADPR]
nvTRPM2 [1]
  EC50: ~2000 nM
nvTRPM2 [2]
  EC50: ~2000 nM
